{"source": "PubChem BioAssay AID1996", "data": [{"settings": "buffer; pH 7.4; 200.0 µM", "units": {"solubility kinetic": "µg/mL"}, "values": [{"compound": "CC(=O)N1CCN(C(=O)c2cc(C)nc3ccccc23)CC1", "solubility kinetic": 33.7}, {"compound": "O=C(NCc1ccc2c(c1)OCO2)c1ccc(Br)cc1", "solubility kinetic": 3.1}, {"compound": "Cc1cc(=O)[nH]c(SCCc2ccccc2)n1", "solubility kinetic": 26.5}, {"compound": "Cc1ccccc1NC(=O)COC(=O)C1C2CC3OC(=O)C1C3C2", "note": "(stereo unspecified)", "solubility kinetic": "> 49.4"}, {"compound": "COCCCNC(=S)N1CCCC(c2nc3cc(C)c(C)cc3[nH]2)C1", "note": "(stereo unspecified)", "solubility kinetic": 53.2}, {"compound": "O=C(c1cccc([N+](=O)[O-])c1)N1CCN(c2ncccn2)CC1", "solubility kinetic": "> 47"}, {"compound": "O=C(NCCc1csc(-c2ccccc2)n1)c1ccco1", "solubility kinetic": 42.4}, {"compound": "Cc1ccccc1CC(=O)NC1CCCCCC1", "solubility kinetic": 11.1}, {"compound": "O=C(COC(=O)c1ccc(Cl)nc1)c1ccc2c(c1)OCCO2", "solubility kinetic": 14.7}, {"compound": "Cc1ccccc1C(=O)NC1CCN(CC(=O)NCc2ccccc2)CC1", "solubility kinetic": 47.7}, {"compound": "CCNC(=O)COc1cc(C)c(Br)c(C)c1", "solubility kinetic": "> 42.9"}, {"compound": "Cc1ccc(NC(=S)N2CCCCC2CO)cc1C", "note": "(stereo unspecified)", "solubility kinetic": "> 41.8"}, {"compound": "CCc1ccccc1NC(=O)NC1CCCCCCC1", "solubility kinetic": 0.5}, {"compound": "COc1ccc(NC(=O)CCn2cccc2)c(OC)c1", "solubility kinetic": 36.1}, {"compound": "O=C(Nc1cnccn1)c1ccc(Cl)cc1", "solubility kinetic": 34.7}, {"compound": "Cc1onc(-c2c(F)cccc2Cl)c1C(=O)Nc1ccc(S(=O)(=O)N2CCOCC2)cc1", "solubility kinetic": 2.3}, {"compound": "CCC(OC(=O)c1nsc(Cl)c1Cl)C(=O)NC(C)(C)C", "note": "(stereo unspecified)", "solubility kinetic": 46.6}, {"compound": "O=C(CC1(CC(=O)N2CCOCC2)CCCC1)Nc1ccc(F)cc1", "solubility kinetic": "> 52.3"}, {"compound": "COc1ccc(-n2c(-c3ccccc3)c[n+]3c2CCC3)cc1.[Br-]", "solubility kinetic": "> 55.7"}, {"compound": "CC(C)N(C(=O)COC(=O)c1cccnc1Cl)c1ccccc1", "solubility kinetic": "> 49.9"}, {"compound": "O=c1c2ccccc2ncn1-c1ccc([N+](=O)[O-])cc1[N+](=O)[O-]", "solubility kinetic": 2.7}, {"compound": "CCOCCc1c(O)nc(SCC)[nH]c1=O", "solubility kinetic": "> 36.6"}, {"compound": "CCCc1nnc(SCC(=O)NC2CC2)n1CC", "solubility kinetic": "> 40.3"}, {"compound": "COCCNc1nc(C)c(C(C)=O)s1", "solubility kinetic": 25.7}, {"compound": "CCc1cc(=O)[nH]c(SCC(=O)N2CCOCC2)n1", "solubility kinetic": "> 42.5"}, {"compound": "COc1cccc(C(c2c(N)n(C)c(=O)n(C)c2=O)C(C)[N+](=O)[O-])c1", "note": "(stereo unspecified)", "solubility kinetic": "> 52.3"}, {"compound": "COc1ccc(C(=O)CC(=O)C(=O)Nc2cccc(C(C)=O)c2)cc1", "solubility kinetic": 13.9}, {"compound": "CCCc1ccc(C(=O)/C=C/N(C)C)cc1", "solubility kinetic": 26.9}, {"compound": "Cn1c(=O)n(CCO)c(=O)c2c1nc(Br)n2Cc1ccccc1", "solubility kinetic": "> 56.9"}, {"compound": "CCOP(=O)(OCC)C(NC(=O)CC(C)C)C(Cl)(Cl)Cl", "note": "(stereo unspecified)", "solubility kinetic": "> 55.3"}, {"compound": "NC(=O)c1ccc(NC(=O)CN2CCOCC2)cc1", "solubility kinetic": 35.6}, {"compound": "CCC1CCCCN1C(=O)CSc1nc(N)cc(=O)[nH]1", "note": "(stereo unspecified)", "solubility kinetic": 42.2}, {"compound": "Cc1onc(-c2c(Cl)cccc2Cl)c1C(=O)O/N=C(\\C#N)c1c(Cl)cccc1Cl", "solubility kinetic": 62.9}, {"compound": "COc1ccc(CNCc2cccn2C)cc1.Cl", "solubility kinetic": "> 40"}, {"compound": "Cc1cccc(C)c1NC(=O)COC(=O)c1cccnc1", "solubility kinetic": "> 42.6"}, {"compound": "COc1ccc2nc(NC(=O)Nc3ccccc3OC)sc2c1", "solubility kinetic": 1.4}, {"compound": "CC1=C([N+](=O)[O-])C(c2ccc(O)c(O)c2)NC(=O)N1", "note": "(stereo unspecified)", "solubility kinetic": "> 39.8"}, {"compound": "COc1ccc(NC(=S)N2CCc3ccccc3C2)cc1OC", "solubility kinetic": 1.9}, {"compound": "COc1ccc(CNC(=O)C2CCN(C(=O)c3ccco3)CC2)cc1", "solubility kinetic": 45.8}, {"compound": "NC(=O)C(=O)NCCCN1CCOCC1", "solubility kinetic": "> 32.3"}, {"compound": "NC1=NC(=O)/C(=C/C=C/c2cccs2)S1", "solubility kinetic": 5.9}, {"compound": "Cc1ccc(OCCC(=O)OCC(=O)NC2CCCC(C)C2C)cc1", "note": "(stereo unspecified)", "solubility kinetic": 15.9}, {"compound": "O=C1NC(=O)N(c2ccc3c(c2)OCO3)C(=O)/C1=C\\c1ccsc1", "solubility kinetic": "> 51.3"}, {"compound": "O=C(Nc1ccncc1)Nc1cccc(Cl)c1Cl", "solubility kinetic": 24.1}, {"compound": "O=C(Nc1nccs1)c1cccc2ccccc12", "solubility kinetic": 1.9}, {"compound": "CC1CC2(CCCC2)Nc2ccc(F)cc21.Cl", "note": "(stereo unspecified)", "solubility kinetic": 0.7}, {"compound": "Cc1ccc([N+](=O)[O-])cc1NC(=O)c1ccccc1", "solubility kinetic": 8.5}, {"compound": "Cc1cccc(C2=N/C(=C\\c3cccs3)C(=O)O2)c1", "solubility kinetic": 4}, {"compound": "Cc1ccc(C(=O)NCCC(=O)NCc2ccco2)cc1", "solubility kinetic": "> 42.9"}, {"compound": "CC(C)c1ccc(CN2C(=O)NC3(CCCCCC3)C2=O)cc1", "solubility kinetic": "< 0.3"}, {"compound": "CCOC(=O)COc1ccc(S(=O)(=O)NC2CC2)cc1", "solubility kinetic": "> 44.9"}, {"compound": "N#C/C(=C\\c1ccc(O)cc1)C(=O)NCc1cccc(Cl)c1", "solubility kinetic": "< 0.3"}, {"compound": "O=C(Cc1ccccc1Cl)Nc1nc2ccccc2[nH]1", "solubility kinetic": 2.6}, {"compound": "Cc1cc2cc(CNC(=O)Nc3ccccc3)ccc2[nH]1", "solubility kinetic": 15.6}, {"compound": "COc1ccc(NS(=O)(=O)c2ccc(F)cc2F)cn1", "solubility kinetic": 43.3}, {"compound": "O=C(OCC(=O)N1CCOCC1)c1cccc(F)c1", "solubility kinetic": "> 40.1"}, {"compound": "CSc1ccc(S(=O)(=O)Nc2ccc3c(c2)NC(=O)CC3)cc1", "solubility kinetic": 8}, {"compound": "COc1ccc(C(=O)NCCCOc2cccc(NC(C)=O)c2)cc1", "solubility kinetic": "> 51.4"}, {"compound": "CCOCCCNC(=O)c1cc2c(=O)n3ccccc3nc2s1", "solubility kinetic": 46.4}, {"compound": "C=C(C)CNC(=S)Nc1cccc(N)n1", "solubility kinetic": "> 33.3"}, {"compound": "S=C(Nc1ccc2c(c1)OCCO2)Nc1ccc2c(c1)OCO2", "solubility kinetic": "> 49.6"}]}]}
